pEC50: −log10 of the molar value.
What was measured:
[1] = molecular target: T1, ATP-dependent translocase ABCB1 (Homo sapiens, UniProt P08183); test: Activation of human Pgp ATPase in human Caco-2 cells at 100 uM; type: cell-based; settings: caco-2, 100 µM
[2] = Apparent permeability from basolateral to apical side of human Caco-2 cell membrane; type: ADME, cell-based
[3] = molecular target: T1, ATP-dependent translocase ABCB1; test: Inhibition of human Pgp mediated [3H]vinblastine transport in human Caco-2 cells; type: cell-based
[4] = Apparent permeability from apical to basolateral side of human Caco-2 cell membrane; type: ADME, cell-based
[5] = Ratio of apparent permeability from basolateral to apical over apical to basolateral side of human Caco-2 cell membrane
MCF7 [6] = test: Cytotoxic activity against adriamycin resistant human MCF7 cells assessed as LDH release at 100 uM after 24 hrs; type: functional
[7] = molecular target: T1, ATP-dependent translocase ABCB1; test: Inhibition of human Pgp in adriamycin resistant MCF7 cells assessed as fold increase in accumulation of doxorubicin at 20 uM relative to control; type: cell-based; settings: mcf7, 20 µM
MCF7 [8] = test: Antiproliferative activity against adriamycin resistant human MCF7 cells assessed by MTT assay at 100 uM after 48 hrs

T1 sequence (P08183 whole entry): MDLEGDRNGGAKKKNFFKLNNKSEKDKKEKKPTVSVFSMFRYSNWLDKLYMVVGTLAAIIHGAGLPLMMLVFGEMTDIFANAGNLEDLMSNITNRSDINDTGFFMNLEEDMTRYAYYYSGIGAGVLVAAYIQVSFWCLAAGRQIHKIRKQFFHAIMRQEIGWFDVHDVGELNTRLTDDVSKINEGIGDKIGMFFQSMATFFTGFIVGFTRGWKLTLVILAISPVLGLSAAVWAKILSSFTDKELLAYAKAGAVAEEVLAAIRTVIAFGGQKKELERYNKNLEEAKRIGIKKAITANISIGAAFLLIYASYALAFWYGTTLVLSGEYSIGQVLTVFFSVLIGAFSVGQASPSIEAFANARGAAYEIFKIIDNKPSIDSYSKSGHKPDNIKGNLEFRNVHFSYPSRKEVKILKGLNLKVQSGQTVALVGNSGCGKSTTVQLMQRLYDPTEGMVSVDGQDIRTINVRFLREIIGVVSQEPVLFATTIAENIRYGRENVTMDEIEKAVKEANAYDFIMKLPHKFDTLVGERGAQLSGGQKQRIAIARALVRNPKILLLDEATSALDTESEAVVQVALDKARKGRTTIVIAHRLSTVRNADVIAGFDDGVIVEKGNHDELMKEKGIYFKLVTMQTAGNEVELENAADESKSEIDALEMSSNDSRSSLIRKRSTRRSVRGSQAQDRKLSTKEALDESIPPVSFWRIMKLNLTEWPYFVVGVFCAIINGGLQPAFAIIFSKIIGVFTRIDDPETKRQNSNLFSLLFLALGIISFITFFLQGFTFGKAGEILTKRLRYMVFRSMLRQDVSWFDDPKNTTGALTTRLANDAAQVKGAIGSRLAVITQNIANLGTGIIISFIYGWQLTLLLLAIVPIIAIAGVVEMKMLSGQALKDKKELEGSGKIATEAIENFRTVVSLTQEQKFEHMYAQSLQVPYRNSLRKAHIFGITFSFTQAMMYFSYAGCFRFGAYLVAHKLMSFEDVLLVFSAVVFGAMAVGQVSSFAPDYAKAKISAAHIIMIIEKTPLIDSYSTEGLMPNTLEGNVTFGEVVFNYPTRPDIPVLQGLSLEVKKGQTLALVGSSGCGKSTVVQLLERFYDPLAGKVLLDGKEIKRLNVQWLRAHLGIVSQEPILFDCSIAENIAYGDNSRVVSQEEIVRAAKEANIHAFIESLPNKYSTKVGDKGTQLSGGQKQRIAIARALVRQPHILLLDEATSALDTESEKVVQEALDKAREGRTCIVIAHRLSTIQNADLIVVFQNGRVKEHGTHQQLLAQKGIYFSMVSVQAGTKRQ

SMILES	Activity [1] [%]	Papp B→A [2] [×10⁻⁶ cm/s]	pEC50 [3]	Papp A→B [4] [×10⁻⁶ cm/s]	efflux ratio [5]	Activity (MCF7 [6]) [%]	Activity [7]	Activity (MCF7 [8]) [%]
COc1cc2c(cc1OC)CN(CCCC1CCCc3cc(OC)c(OC)cc31)CC2 (stereo not drawn)	62	440	4.75	86.8	5.1	–	–	–
COc1ccc2c(c1)CCCC2CCCN1CCc2cc(OC)c(OC)cc2C1 (stereo not drawn)	27	351	5.09	82.8	4.2	–	–	–
COc1cc2c(cc1OC)CN(CCCC1CCCc3c(OC)cccc31)CC2 (stereo not drawn)	70	104	5.20	5.6	18	<20	4.8	<20
COc1ccc2c(c1)CCC=C2CCCN1CCc2cc(OC)c(OC)cc2C1	–	151	4.08	40.7	3.7	–	–	–
COc1ccc2c(c1)C(CCCN1CCc3cc(OC)c(OC)cc3C1)=CCC2	20	332	4.45	61	5.4	–	–	–
COc1cc2c(cc1OC)CN(CC/C=C1\CCCc3c(OC)cccc31)CC2	–	38.6	5.79	23.7	1.6	<20	5.7	25
COc1cc2c(cc1OC)CN(CCCC1=CCCc3cc(OC)c(OC)cc31)CC2	15	103	4.50	67.2	1.5	–	–	–
COc1cccc2c1CCC/C2=C\CCN1CCCCC1	–	256	5.09	58.4	4.4	–	–	–
COc1ccc2c(c1)C(CCCN1CCc3cc(OC)c(OC)cc3C1)CCC2 (stereo not drawn)	15	170	4.99	46	3.7	–	–	–
COc1ccc2c(c1)/C(=C/CCN1CCc3cc(OC)c(OC)cc3C1)CCC2	–	657	5.31	166	3.9	<20	4.1	<20
COc1cc2c(cc1OC)CN(CCC=C1CCCCC1)CC2	–	240	4.82	77.4	3.1	–	–	–
COc1cc2c(cc1OC)CN(CCCC1=CCCc3c(OC)cccc31)CC2	30	114	4.82	16	7.1	–	–	–
COc1cccc2c1CCCC2CCCN1CCN(C2CCCCC2)CC1 (stereo not drawn)	–	436	6.26	250	1.7	–	–	–

— ChEMBL document CHEMBL1143871, “Small P-gp modulating molecules: SAR studies on tetrahydroisoquinoline derivatives” (Bioorg Med Chem, 2008)
